Several values for one entry are separate records, joined by “and”; a condition that tells them apart may be missing. Equal entries are not always repeated.
Legend:
[1] = DPPH radical scavenging assay; conditions: mean ± SD; 45 min in the dark; 512 nm
Experimental: The DPPH radical scavenging assay was conducted following the procedure described in our previous study. The test compounds and ascorbic acid at various concentrations (ranging from 0 µM to 50 µM) in DMSO were mixed with a solution of DPPH (0.20 mM) in methanol and incubated in the dark for 45 min. Five absorbance readings were recorded at 512 nm using an Elisa plate reader (Varioskan Flash, ThermoFisher Scientific, Vantaa, Finland). The experiment was carried out in triplicate, and averaged values from the absorbance readings were used to determine the IC50 and standard deviation values in GraphPad prism from nonlinear regression dose–response curves.

[2] = NO free radical scavenging assay (sodium nitroprusside/Griess); conditions: mean ± SD; sodium nitroprusside, Griess reagent, 550 nm
Experimental: The assay was conducted following the method described in our previous study. A mixture of 10 mM sodium nitroprusside (20 µL), phosphate buffer (5 µL) and the test compound (5 µL) were incubated at 25 °C in a 96-well plate for 2.5 h. After incubation, 20 µL of Griess reagent (1.00 g of sulfanilic acid + 0.10 g naphthylethylene diamine dihydrochloride) was added to the previous mixture and allowed to stand for 30 min. […] Each experiment was performed in triplicate, and the average was taken. The average obtained from the absorbance readings was used to calculate the IC50 values in GraphPad prism from nonlinear regression dose–response curves.

[3] = system: NO generated from nitric oxide synthase (NOS); assay: Inhibitory activity against NO generated from NOS (EnzyChrom kit); assay type: biochemical; conditions: mean ± SD, 1-50 µM
Experimental: A nitric oxide synthase (NOS) assay was performed following the procedure recommended by the manufacturer as outlined in the screening kit (Catalogue No. EINO-100; EnzyChrom). Various concentrations (1, 5, 10, 25 and 50 µM) of the compounds 3a, 3c, 3f, 3i, 3l, 3n and 3p and the reference standard, ascorbic acid, were prepared. The enzyme solution (12.5 U/mL NOS, 10 µL), assay buffer (25 µL) and test samples (5 µL) were incubated at room temperature for 15 min. After pre-incubation, 10 µL of reaction mix was added and incubated at 37 °C for 60 min. A 200 µL quantity of NO detection reagent was added, the detection reaction was run at 37 °C for 60 min, and absorbance was determined at a wavelength of 540 nm using an Elisa plate reader (Varioskan Flash, ThermoFisher Scientific, Vantaa, Finland). The average of three readings was used to calculate the NOS percentage inhibition using the following formula: % Inhibition=1−ΔOD Test Compd/ΔOD No Inhibitor ×100%
The IC50 values and standard deviation values were determined from nonlinear regression dose–response curve and compared with the results in GraphPad prism.

[4] = target: T1, α-Glucosidase type 1 from baker's yeast (Saccharomyces cerevisiae, UniProt P53341); assay: biochemical; conditions: IC50 α-Glucosidase, mean ± SD, triplicate; tested at 1, 5, 10, 25, 50 µM
T1 construct: purchased Sigma Aldrich (Pty) Ltd. G5003
Experimental: The assay was conducted in triplicate following a method described in our previous study. […] After pre-incubation, 17 µL of 2 mM PNP-G was added. The absorbances were recorded in a 96-well microplate at 400 nm using an Elisa plate reader (Varioskan Flash, ThermoFischer Scientific, Vantaa, Finland). The average values obtained from the readings were used to determine the IC50 and standard deviation values using a GraphPad Prism software (Version 8, GraphPad Software Inc., San Diego, CA, USA). The average values obtained from the absorbance readings were used to determine the IC50 and standard deviation values in GraphPad prism from nonlinear regression dose–response curves.

human α-amylase = target: T2, human α-amylase (Homo sapiens, UniProt P04746); assay: α-amylase inhibitor screening kit assay; assay type: biochemical; conditions: mean ± SD, triplicate; tested at 1, 5, 10, 25, 50 µM
T2 construct: purchased Abcam ab283391
T2 sequence (P04746 16-511): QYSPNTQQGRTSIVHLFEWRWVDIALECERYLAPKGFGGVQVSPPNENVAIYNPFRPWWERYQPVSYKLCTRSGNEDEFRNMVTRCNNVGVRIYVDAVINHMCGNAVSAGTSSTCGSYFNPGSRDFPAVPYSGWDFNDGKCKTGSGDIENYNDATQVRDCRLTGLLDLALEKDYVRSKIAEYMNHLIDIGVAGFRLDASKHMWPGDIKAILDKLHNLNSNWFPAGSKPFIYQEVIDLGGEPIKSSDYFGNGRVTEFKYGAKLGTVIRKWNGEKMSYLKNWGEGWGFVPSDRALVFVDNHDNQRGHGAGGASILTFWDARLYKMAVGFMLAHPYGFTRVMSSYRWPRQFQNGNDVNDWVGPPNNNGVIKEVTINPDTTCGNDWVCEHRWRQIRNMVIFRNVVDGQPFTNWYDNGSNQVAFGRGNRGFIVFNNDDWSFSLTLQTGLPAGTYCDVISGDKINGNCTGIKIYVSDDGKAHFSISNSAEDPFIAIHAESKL
Experimental: The α-amylase assay was performed in triplicate, using a 96-well plate following the procedure recommended by the manufacturer as outlined in the α-amylase inhibitor Screening Kit (Catalogue No. ab283391; Abcam). […] The average values obtained from the absorbance readings were used to determine the IC50 and standard deviation values in GraphPad prism from nonlinear regression dose–response curves.

[5] = target: superoxide dismutase (SOD); assay: Superoxide dismutase (SOD) inhibitory assay (SOD assay kit-WST); assay type: biochemical; conditions: duplicate; 1-50 µM; 25 °C, 30 min; read-out: IC50 SOD inhibition
Experimental: The antioxidant activity of the compounds 3a, 3c, 3f, 3i, 3l, 3n and 3p against superoxide radicals was assessed via enzymatic assay in vitro using the SOD assay kit-WST according to the manufacturer’s instructions (Sigma-Aldrich®). The reaction mixtures in the SOD kit were combined with 20 μL of working solution of the samples in a 96-well plate. Plates were gently shaken and then incubated at 25 °C for 30 min. The reference positive control, diphenyleneiodonium (DPI), and the compounds were tested at 01, 5, 10, 25 and 50 µM in duplicates. The inhibition activity of SOD on the reaction of […] generated the superoxide with a tetrazolium salt, which was then determined by measuring the absorbance of the mixtures at a wavelength of 450 nm using an Elisa plate reader (Varioskan Flash, ThermoFisher Scientific, Vantaa, Finland). The SOD activity values obtained used to calculate the percentage of inhibition. % SOD activity=ODx− ODy/ODx ×100% where ODx is the absorbance of the blank (untreated SOD) and ODy is the absorbance of the sample (treated SOD). All tests were performed in duplicate.

[6] = system: lung cancer (A549) cell line; assay: MTT cytotoxicity assay, A549; conditions: for Cell viability percentage, A549: Table S3; for IC50: Homo sapiens, A549, read-out: IC50 A549
Experimental: (§1) Cells were cultured in sterile Dulbecco’s Minimal Essential Medium (DMEM, Gibco) supplemented with 10% fetal bovine serum (FBS) and 1% penicillin-streptomycin solution. […] Cell counting was carried out using a handheld automated cell counter (Scapter 3.0™, Merck, Burlington, MA, USA) and seeded (1 × 10^4 cells/well) into a 96-well plate. After 24 h, the cells were treated with different concentrations (1, 5, 10, 25 and 50 µM) of the test compounds and reference standards prepared in DMEM. The MTT solution (20 μL) prepared in PBS (5 mg/mL) was added to all the wells, and the plates were incubated for 4 h, followed by 1 h incubation with 100 µL of dimethyl sulfoxide (DMSO) to dissolve the formazan crystals. Untreated cells and 5% DMSO were included in the experiment as negative controls. All experiments were performed in triplicate. The plates were read at 570 nm at a reference wavelength of 630 nm using an ELISA plate reader (Varioskan Flash, ThermoFisher Scientific, Vantaa, Finland). The percentage of cell viability was calculated using the following formula, Cell viability %=At/Ab×100 where At represents the absorbance value of test compound and Ab the absorbance value of the blank. […] The data were expressed as means ± SD.

[7] = system: breast cancer (MCF-7) cell line; assay: MTT cytotoxicity assay, MCF-7; conditions: for Cell viability percentage, MCF-7: Table S2; for IC50: Homo sapiens, MCF7, read-out: IC50 MCF-7
[8] = MTT cytotoxicity assay, HEK293-T; conditions: human, HEK293-T cells
Experimental: as §1

[9] = system: human embryonic kidney (HEK293-T) cell line; assay: MTT cytotoxicity assay, HEK293-T; conditions: Homo sapiens, HEK-293T, read-out: IC50 Hek293-T
Experimental: as §1

T1 sequence (P53341 whole entry): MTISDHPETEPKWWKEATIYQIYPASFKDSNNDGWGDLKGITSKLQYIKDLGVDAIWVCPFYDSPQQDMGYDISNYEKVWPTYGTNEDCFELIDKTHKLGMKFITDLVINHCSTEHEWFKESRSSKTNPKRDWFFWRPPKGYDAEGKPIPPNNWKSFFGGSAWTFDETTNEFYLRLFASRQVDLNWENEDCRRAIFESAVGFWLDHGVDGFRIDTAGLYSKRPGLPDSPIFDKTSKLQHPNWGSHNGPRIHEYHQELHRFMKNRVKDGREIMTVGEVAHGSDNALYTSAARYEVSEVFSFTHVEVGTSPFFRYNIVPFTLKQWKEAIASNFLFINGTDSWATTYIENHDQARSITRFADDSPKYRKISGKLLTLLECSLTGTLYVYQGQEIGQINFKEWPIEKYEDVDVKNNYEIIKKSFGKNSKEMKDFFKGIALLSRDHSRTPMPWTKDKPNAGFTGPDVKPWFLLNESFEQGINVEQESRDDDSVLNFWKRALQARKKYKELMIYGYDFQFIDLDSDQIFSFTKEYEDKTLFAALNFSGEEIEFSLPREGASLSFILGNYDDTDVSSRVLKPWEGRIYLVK

Compound | IC50 [1] | IC50 [2] | IC50 [3] | IC50 [4] | IC50 (human α-amylase) | melting point | Cell viability percentage, A549 ([6]; Conc. 1 (µM per method)) | IC50 [6] | Cell viability percentage, MCF-7 ([7]; Conc. 1 (µM per method)) | Cell viability percentage, MCF-7 ([7]; Conc. 5 (µM per method)) | Cell viability percentage, MCF-7 ([7]; Conc. 10 (µM per method)) | Cell viability percentage, MCF-7 ([7]; Conc. 25 (µM per method)) | Cell viability percentage, MCF-7 ([7]; Conc. 50 (µM per method)) | IC50 [7] | viability at 1 µM [8] | viability at 5 µM [8] | viability at 10 µM [8] | viability at 25 µM [8] | viability at 50 µM [8] | IC50 [9] | also measured
O=C1O[C@H]([C@@H](O)CO)C(O)=C1O [Ascorbic acid, ascorbic acid, reference compound] | 5.02 ± 0.009 µM | 5.39 ± 0.005 µM | 0.999 ± 0.006 µM |  |  |  |  |  |  |  |  |  |  |  |  |  |  |  |  |  | 
CC1=[N+]([O-])C(c2ccc(Cl)cc2)Nc2ccc(Br)cc21 (centres unmarked) [Compound 3c] | 33.52 ± 0.025 µM | 7.45 ± 0.002 µM | 1.1 ± 0.003 µM | 1.04 µM and 0.92 µM | 30.48 ± 0.02 µM | 171 to 173 °C | 73,4391% | 15.26 ± 0.09 µM | 46,7898% | 44,7938% | 42,5981% | 41,6999% | 37,2256% | 25.48 ± 0.08 µM | 64.7% | 62.9% | 50.3% | 34.2% | 23.5% | 27.54 ± 0.05 µM | IC50 [5]: 4.6 ± 0.14 µM; Cell viability percentage, A549 ([6]; Conc. 5 (µM per method)): 66,5879%; Cell viability percentage, A549 ([6]; Conc. 10 (µM per method)): 54,3481%; Cell viability percentage, A549 ([6]; Conc. 25 (µM per method)): 41,782%; Cell viability percentage, A549 ([6]; Conc. 50 (µM per method)): 29,5534%
CC1=[N+]([O-])C(c2ccc(F)cc2)Nc2ccc(I)cc21 (centres unmarked) [Compound 3f] | 23.66 ± 0.009 µM | 6.74 ± 0.002 µM | 4.7 ± 0.004 µM | 9.27 ± 0.02 µM | 0.64 ± 0.01 µM | 180 to 182 °C | 82,3715% | 13.71 ± 0.11 µM | 69,8879% | 62,4071% | 44,9558% | 32,649% | 23,6814% | 19.01 ± 0.04 µM | 72% | 55.2% | 47.8% | 36.7% | 14.7% | 22.32 ± 0.08 µM | IC50 [5]: 11.59 ± 0.08 µM; Cell viability percentage, A549 ([6]; Conc. 5 (µM per method)): 71,9204%; Cell viability percentage, A549 ([6]; Conc. 10 (µM per method)): 61,143%; Cell viability percentage, A549 ([6]; Conc. 25 (µM per method)): 44,212%; Cell viability percentage, A549 ([6]; Conc. 50 (µM per method)): 32,7708%
CC1=[N+]([O-])C(c2ccccc2)Nc2ccc(Br)cc21 (centres unmarked) [Compound 3a] | 4.74 ± 0.027 µM | 27.34 ± 0.04 µM | 5.24 ± 0.002 µM | 1.08 ± 0.02 µM | 5.33 ± 0.01 µM | 158 to 160 °C | 66,8354% | 15.84 ± 0.07 µM | 26,2641% | 26,1144% | 23,187% | 22,3387% | 19,6607% | 10.83 ± 0.09 µM | 69.4% | 63.4% | 57.8% | 55.1% | 19% | 40.18 ± 0.02 µM | IC50 [5]: 15 ± 10 µM; Cell viability percentage, A549 ([6]; Conc. 5 (µM per method)): 57,3068%; Cell viability percentage, A549 ([6]; Conc. 10 (µM per method)): 54,0443%; Cell viability percentage, A549 ([6]; Conc. 25 (µM per method)): 41,1182%; Cell viability percentage, A549 ([6]; Conc. 50 (µM per method)): 30,5771%
COc1ccc(C2Nc3ccc(Br)cc3C(C)=[N+]2[O-])cc1 (centres unmarked) [Compound 3d] | 9.55 ± 0.006 µM | 24.42 ± 0.004 µM |  | 68.2 ± 0.01 µM | 54.08 ± 0.03 µM | 194 to 196 °C |  | 13.45 ± 0.03 µM | 47,0559% | 46,8729% | 44,0286% | 43,2136% | 38,6394% | 13.68 ± 0.09 µM | 75.1% | 60.1% | 54.1% | 30.6% | 17.6% | 37.53 ± 0.18 µM | 
COc1ccc(C2Nc3ccc(I)cc3C(C)=[N+]2[O-])cc1 (centres unmarked) [Compound 3h] | 0.21 ± 0.057 µM | 10.05 ± 0.003 µM |  | 27.18 ± 0.02 µM | 55.72 ± 0.02 µM | 176 to 179 °C | 87,7714% | 18.71 ± 0.16 µM | 45,0932% | 44,5775% | 43,1304% | 41,2009% | 37,5083% | 22.62 ± 0.12 µM | 33.3% | 32.6% | 30.8% | 29.7% | 28.1% | 24.26 ± 0.04 µM | Cell viability percentage, A549 ([6]; Conc. 5 (µM per method)): 86,9389%; Cell viability percentage, A549 ([6]; Conc. 10 (µM per method)): 64,8667%; Cell viability percentage, A549 ([6]; Conc. 25 (µM per method)): 56,0806%; Cell viability percentage, A549 ([6]; Conc. 50 (µM per method)): 38,362%

Source: article PMC10669220, “In Vitro α-Glucosidase and α-Amylase Inhibition, Cytotoxicity and Free Radical Scavenging Profiling of the 6-Halogeno and Mixed 6,8-Dihalogenated 2-Aryl-4-methyl-1,2-dihydroquinazoline 3-Oxides” (Antioxidants, 2023)
